The text below walks through data of US20110038884A1, “IMMUNOPOTENTIATING AGENT COMPRISING EP1 AGONIST” (NATIONAL UNIVERSITY CO., HAMAMATSU UNIVER. SCHOOL OF …, priority 2008, published 2011).

The test system of experiment [1] is TRP-2-specific CTLs in cervical lymph nodes. As to the kind of experiment: Activation of cytotoxic T lymphocytes in cervical lymph nodes: TRP-2-specific CTL frequency by tetramer flow cytometry after tape stripping. In kind it is in vivo, C57BL/6 (B6) mice. To be noted: relative to 100 = total mononucleocytes in cervical lymph nodes; one week after application to tape-stripped auricles; TRP-2 10 mg per side, Compound A 20 μL of 100 μM per side. (A flow cytometer gives signals particle by particle.)
Method: The corneal layer of the auricles of C57BL/6 (B6) mice was destroyed by repeatedly carrying out (ten times) a stripping operation using adhesive tape, following which an antigen peptide or EP1 agonist was applied as a test substance. Using a solution obtained by dissolving a melanoma-specific antigen peptide (available from Peptide Business Department, Accord K.K.; abbreviated below as TRP-2) as the antigen peptide in 70% ethanol, 10 mg of the antigen peptide was applied per side of an auricle. […] One week after application of the test substance, the cervical lymph nodes were removed. The TRP-2-specific CTL frequency, relative to an arbitrary value of 100 representing the total number of mononucleocytes in the cervical lymph nodes, was determined by flow cytometric analysis (FACScaliber; Becton, Dickinson and Company) with a tetramer (Medical & Biological Laboratories Co., Ltd.). Four experimental groups were established: (1) a group in which only tape stripping (abbreviated below as TS) was carried out, (2) a group in which TRP-2 was applied after TS, (3) a group in which Compound A was applied after TS, and (4) a group in which TRP-2 and Compound A were applied after TS.

A further experiment relates to I-A^b. Kind of experiment: Expression of cell-surface molecules in cultured Langerhans cells (flow cytometry): I-A^b. The settings on record: Compound A 1 μM, Langerhans cells cultured a half-day; control group 12.1. In kind it is cell-based, C57BL/6 mice. As to the method: (§1) Using the same procedure as in Example 2 above, the Langerhans cells of C57BL/6 (36) mice were isolated, following which Compound A (1 μM) was added as an EP1 agonist and the cells were cultured for a half-day in a culture medium (cRPMI1640 medium; Sigma-Aldrich Japan). The cultured cells were then stained using antibodies specific to the cell-surface molecules I-A^b, B7-1 (CD80), B7-2 (CD86), CD40 and ICAM-1 (CD54), and changes in the expression of these molecules were analyzed by flow cytometry. An experimental group treated in the same way, excluding the addition of Compound A, was established as a control.

The test system of a further experiment is B7-1 (CD80). As to the kind of experiment: Expression of cell-surface molecules in cultured Langerhans cells (flow cytometry): B7-1. The format is cell-based, C57BL/6 mice. The settings on record: Compound A 1 μM, Langerhans cells cultured a half-day; control group 5.9. As to the method:
as §1

The next experiment has as its system B7-2 (CD86). As to the kind of experiment: Expression of cell-surface molecules in cultured Langerhans cells (flow cytometry): B7-2. The format is cell-based, C57BL/6 mice. To be noted: Compound A 1 μM, Langerhans cells cultured a half-day; control group 65.5. As to the method: as §1
The next experiment relates to CD40. Kind of experiment: Expression of cell-surface molecules in cultured Langerhans cells (flow cytometry): CD40. In kind it is cell-based, C57BL/6 mice. To be noted: Compound A 1 μM, Langerhans cells cultured a half-day; control group 28.7. The procedure: as §1
The subject of another experiment is ICAM-1 (CD54). Kind of experiment: Expression of cell-surface molecules in cultured Langerhans cells (flow cytometry): ICAM-1. The settings on record: Compound A 1 μM, Langerhans cells cultured a half-day; control group 36.5. In kind it is cell-based, C57BL/6 mice. As to the method:
as §1

The next experiment has as its system B16 melanoma cells. As to the kind of experiment: Life-prolonging effects in melanoma-inoculated mice. In kind it is in vivo, B6 mice. To be noted: 8 animals per group. The procedure:
B16 melanoma cells (2×10^5) were transplanted into B6 mice in the same way as in Example 4. On day 5 after transplantation, the respective test substances (TRP-2 (10 μg per side of an auricle), Compound A (20 μL of a 100 μM solution per side of an auricle)) were administered to the right auricles in B6 mice by the same method as in Example 2. The same treatment was carried out ten days later on the left auricle, following which the survival of the mice in each experimental group was examined. The following groups were established as experimental groups (each group being composed of 8 animals): (1) a group in which only TS was carried out, (2) a group in which compound A was applied after TS, and (3) a group in which TRP-2 and Compound A were applied after TS.

The test system of the next experiment is NK1.1+ cells. As to the kind of experiment: Activation of NK1.1+ cells in cervical lymph nodes. The format is in vivo, B6 mice. To be noted: relative to 100 = total mononucleocytes in cervical lymph nodes; two weeks after application of 20 μL of 100 μM per side after TS; TS-only group 2.7. The procedure: As in Example 1, the corneal layer of the auricles of B6 mice was destroyed by repeatedly stripping ten times using adhesive tape, following which an EP1 agonist (Compound A: 20 μL of a 100 μM solution per side of an auricle) was applied as the test substance. Two weeks after application of the test substance, the cervical lymph nodes were removed. The frequency of NK1.1+ cells, relative to an arbitrary value of 100 representing the total number of mononucleocytes in the cervical lymph nodes, was determined by flow cytometric analysis. The following groups were established as experimental groups: (1) a group in which only TS was carried out, and (2) a group in which Compound A was applied after TS.

A further experiment has as its system splenic lymphocytes. As to the kind of experiment: Splenic lymphocyte proliferative ability test (WST-1). The format is in vivo, B6 mice. To be noted: cell proliferation ratio; splenic lymphocytes recovered one week after application after TS, cultured 3 days with IL-2 (10 U/mL); TS-only group 4.2. As to the method:
As in Example 6, TS was carried out, after which Compound A (20 μL of a 100 μM solution per side of an auricle) was applied as the substance. One week after application of the test substance, splenic lymphocytes were recovered, then cultured at 37° C. for 3 days in a culture medium (cRPMI1640 medium: Sigma-Aldrich Japan) containing IL-2 (10 U/mL). Cell proliferative ability tests were carried out using WST-1 (Takara Bio Inc.) as the cell proliferation reagent (absorbance at 450 nm). Experimental groups similar to those in Example 6 were established (with each group containing three animals).
The relative values of the absorption intensities in each experimental group, based on an arbitrary value of 1 for the absorbance at 450 nm when all of the WST-1 added had decomposed to formazan, indicate the percent uptake of WST-1; that is, the cell proliferation ratio.
For orientation: Tetrazolium dyes change colour on reduction, which living cells bring about.

The test system of experiment [2] is EL4 cells not subjected to NP pulsing. As to the kind of experiment: NP-specific CTL specific lysis of calcein-labeled EL4 cells, not NP pulsed. The format is in vivo, C57BL/6 (B6) mice. To be noted: 3 hours.
The next experiment concerns NP-pulsed EL4 cells. Kind of experiment: NP-specific CTL specific lysis of calcein-labeled EL4 cells, NP pulsed. In kind it is in vivo, C57BL/6 (B6) mice. To be noted: NP-pulsed EL4 cells (10 μg/mL NP), 3 hours.
Experiment [3] has as its system isolated epidermal Langerhans cells. Kind of experiment: Activation of cytotoxic T lymphocytes in isolated Langerhans cells co-cultured with lymphocytes. In kind it is cell-based, C57BL/6 (B6) mouse. The settings on record: relative to 100 = total mononucleocytes in culture medium; TRP-2 10 μg/mL, Compound A 1 μM; 7 days co-culture. The procedure:
An epidermal cell suspension was prepared by trypsinizing an auricle epidermal sheet removed over a given surface area from the corneal layer on one of the auricles in C57BL/6 (B6) mouse. The resulting epidermal cell suspension was subjected to panning using an antibody specific for I-A^b antigen in order to isolate epidermal Langerhans cells. Each test substance (TRP-2 (concentration, 10 μg/mL) and Compound A (1 μM)) was added to the isolated Langerhans cells (cell density, 10^5 cells/mL), following which the cells were cultured in a culture medium (cRPMI1640 medium; Sigma-Aldrich Japan). After a half-day, the cells were then co-cultured for 7 days with spleen cell lymphocytes isolated from the cervical lymph nodes of B6 mice. The frequency of TRP-2-specific CTLs, relative to an arbitrary value of 100 representing the total number of mononucleocytes in the culture medium, was subsequently determined by flow cytometric analysis (FACScaliber; Becton, Dickinson and Company) with a tetramer (Medical & Biological Laboratories Co., Ltd.). The following groups were established as experimental groups: (1) an untreated group, (2) a group in which TRP-2 was added, and (3) a group in which TRP-2 and Compound A were both added.

As to `CCCC[C@H](C)C[C@H](O)/C=C/[C@H]1[C@H](O)CC(=O)[C@@H]1CC(=O)C1CCC(C(=O)O)CC1` (stereo partly drawn) [Compound A, (13E)-(11α,15S,17S)-2,5-Ethano-6,9-dioxo-11,15-dihydroxy-17,20-dimethylprosta-13-enoic acid], the “Ratio of TRP-2-specific CTLs” value in experiment [1] is recorded as 0.53. Besides, the “Expression of each cell-surface molecule (%): I-A^b” value in the experiment on I-A^b is on record as 28.3%. Further, the “Expression of each cell-surface molecule (%): B7-1” value in the experiment with B7-1 (CD80) came out at 8.8%. The “Expression of each cell-surface molecule (%): B7-2” value in the experiment with B7-2 (CD86) was determined as 65.2%. Moreover, the “Expression of each cell-surface molecule (%): CD40” value in the experiment on CD40 is on record as 30.8%. For the same compound, the “Expression of each cell-surface molecule (%): ICAM-1” value in the experiment with ICAM-1 (CD54) was 46.3%. Besides, the Number of survivors in the experiment with B16 melanoma cells (day 14 after inoculation of B16 melanoma cells), with B16 melanoma cells (day 16 after inoculation of B16 melanoma cells), in the experiment on B16 melanoma cells (day 24 after inoculation of B16 melanoma cells), in the experiment with B16 melanoma cells (day 25 after inoculation of B16 melanoma cells), in the experiment on B16 melanoma cells (day 28 after inoculation of B16 melanoma cells) and in the experiment with B16 melanoma cells (day 30 after inoculation of B16 melanoma cells) was 8 throughout. The Number of survivors in the experiment on B16 melanoma cells (day 32 after inoculation of B16 melanoma cells) is given as 8; in the experiment on B16 melanoma cells (day 34 after inoculation of B16 melanoma cells), 8; in the experiment with B16 melanoma cells (day 36 after inoculation of B16 melanoma cells), 4; with B16 melanoma cells (day 38 after inoculation of B16 melanoma cells) it was 0; in the experiment with B16 melanoma cells (day 41 after inoculation of B16 melanoma cells) it was 0; in the experiment with B16 melanoma cells (day 44 after inoculation of B16 melanoma cells), 0. Moreover, the Number of survivors with B16 melanoma cells (day 46 after inoculation of B16 melanoma cells), in the experiment with B16 melanoma cells (day 50 after inoculation of B16 melanoma cells), in the experiment with B16 melanoma cells (day 52 after inoculation of B16 melanoma cells), with B16 melanoma cells (day 55 after inoculation of B16 melanoma cells) and with B16 melanoma cells (day 56 after inoculation of B16 melanoma cells) was 0 each time. In addition, in the experiment with NK1.1+ cells, the “Ratio of NK1.1+ cells” value was found to be 3.6. Besides, the “Uptake of WST-1 (%)” value in the experiment with splenic lymphocytes is recorded as 27.3%.
“NP: influenza virus-specific antigen peptide, nucleoprotein (NP) 366-374, Ala Ser Asn Glu Asn Met Glu Thr Met (ASNENMETM; UniProt P03466 366-374, looked up, fragment)”: the Specific lysis in [2] is listed as 1.2%; with NP-pulsed EL4 cells, 11.9%.
Regarding “TRP-2: melanoma-specific antigen peptide, tyrosinase-related protein 2 181-188, Val Tyr Asp Phe Phe Val Trp Leu (VYDFFVWL; Tyrosinase-related protein 2 residues 181-188) [reference compound]”, the “Ratio of TRP-2-specific CTLs” value amounted to 0.44 in experiment [1] and 3.2 in experiment [3].
